Test results taken from patent US8946247B2, “Quinazoline carboxamide azetidines” (Merck Patent GmbH, priority 2010, dated 2015).

Columns and labels:
[1] = biological target: T1, P70S6K (T412E mutant) (Homo sapiens, UniProt P23443, T412E); assay: p70S6K Enzyme Assay; type: biochemical; details: 24 μM ATP, 90 min at 25° C., Caliper mobility shift
T1 construct: purchased Millipore
Procedure: p70S6K inhibitor compounds were diluted and plated in 96 well plates. A reaction mixture including the following components were then added to the compound plate to initiate the enzyme reaction; P70S6K (3 nM, T412E mutant, Millipore) was mixed with 24 μM ATP in an assay buffer containing 100 mM Hepes (pH 7.5), 5 mM MgCl2, 1 mM DTT, 0.015% Brij and 1 μM of the substrate peptide FITC-AHA-AKRRRLSSLRA-OH (derived from the S6 ribosomal protein sequence, FITC=fluorescein isothiocyanate, AHA=6-aminohexanoic acid). The reaction was incubated for 90 min at 25° C., before the addition of 10 mM EDTA to stop the reaction. The proportion of substrate and product (phosphorylated) peptide was analysed on a Caliper Life Sciences Lab Chip 3000, using a pressure of −1.4 psi, and upstream and downstream voltages of −3000 and −700 respectively. Product peaks were resolved before substrate peaks on the resulting chromatograms.
To assess the inhibitory potential of the compounds, IC50-values were determined, as shown in Chemical Synthesis section above.

[2] = system: pS6 MDA-MB-468; assay: Cellular Activity Assay (phospho-S6 in MDA-MB-468 cells); type: cell-based; details: Homo sapiens, 2 hr compound incubation, percent pS6-positive cells
Procedure: MDA-MB-468 cells were grown in DMEM containing glutamine supplemented with 10% Fetal Bovine Serum (FBS) and 1× antibiotics. Cells were maintained by splitting 1:3 twice a week.
For the assay, cells were plated the evening before at a density of 4000 cells per well in black polyD lysine coated 384 well plates. Cells were incubated overnight (16 to 20 hours) in growth media. Compounds at an appropriate concentration were added to the wells and incubated for 2 hr. Controls included: i) no primary, ii) rabbit isotype, iii) propidium iodide (red) only and iv) anti-phospho-S6 antibody alone (green only). Cells were then fixed in 4% paraformaldehyde for 15-20 minutes at room temperature, then washed 3×80 ul with PBS.
50 ul 10% normal goat serum (NGS) with 0.2% triton X 100 in PBS were added and incubated for 30 to 60 minutes at room temperature. Anti-phospho-S6 antibody was diluted 1:800 2% with NGS in 0.2% TritonX-100 and 30 ul added to appropriate wells. The wells were incubated overnight at 4 degrees Celsius.
Then the wells were washed with 3×80 uL PBS. The secondary green fluorescence labeled antibody (Alexa Fluor® 488 F(ab′)2 fragment goat Anti-rabbit IgG (H+L)), was diluted 1:1500 in 2% NGS with 0.2% TritonX-100, and 30 ul were added to the appropriate wells which were then incubated in the dark at room temperature for 60 minutes. Then they were washed with 4×80 ul PBS. Propidium iodide (1.5 mM stock) was diluted 1:1000 in PBS, and 50 ul were added to the appropriate wells and incubated for 30 minutes at room temperature in the dark. Propidium iodide was not washed out. Plates were read on the Acumen Explorer.
Red and green cell populations were determined using controls. The number of green cells (pS6) and total number of cells (red) were then counted and the percentage of green cells was calculated. Percent positive cell data was plotted on a log scale against concentration of compounds and IC50 values were calculated from dose response curves.

[3] = biological target: T2, Akt1 (Homo sapiens, UniProt P31749); assay: AKT/PKB Kinase Assay; type: biochemical; details: His-AKT (Full Length), 160 uM ATP, 90 min at 25 C
T2 construct: 0.1 ng/ul His-AKT (Full Length), (Invitrogen, Part #P2999, Lot #641228C); His; purchased Invitrogen P2999
T2 sequence (P31749 whole entry): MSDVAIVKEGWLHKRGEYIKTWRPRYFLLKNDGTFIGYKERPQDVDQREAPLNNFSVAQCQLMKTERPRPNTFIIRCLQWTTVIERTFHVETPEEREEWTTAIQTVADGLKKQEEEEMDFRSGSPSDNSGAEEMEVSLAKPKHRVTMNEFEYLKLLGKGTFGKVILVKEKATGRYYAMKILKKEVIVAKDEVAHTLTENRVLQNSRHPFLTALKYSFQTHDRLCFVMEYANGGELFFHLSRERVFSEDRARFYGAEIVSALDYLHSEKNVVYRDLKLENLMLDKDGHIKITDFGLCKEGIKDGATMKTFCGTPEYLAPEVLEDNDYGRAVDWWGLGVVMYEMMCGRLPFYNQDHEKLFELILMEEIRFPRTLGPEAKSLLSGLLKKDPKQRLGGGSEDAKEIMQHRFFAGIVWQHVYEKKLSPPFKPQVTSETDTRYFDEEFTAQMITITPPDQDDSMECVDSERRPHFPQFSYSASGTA
Procedure: In order to measure AKT inhibition in the Caliper Life Sciences LC3000, a TTP Mosquito liquid handling instrument was used to place 125 nl of the appropriate concentration of inhibitor in 100% DMSO (for a dose response curve calculation) into each well of a 384-well plate. To this reaction components were added to a final volume of 12.5 ul: • 0.1 ng/ul His-AKT (Full Length), (Invitrogen, Part #P2999, Lot #641228C) • 160 uM ATP (Fluke, 02055) • 1 mM DTT (Sigma, D0632) • 1 mM MgCl2 (Sigma, M1028) • 1 uM substrate peptide (sequence FITC-AHA-GRPRTSSFAEG-NH2), synthesized by Tufts Peptide Synthesis service. • 100 mM HEPES pH 7.5 (Calbiochem, 391338) • 0.015% Brij-35 (Sigma, B4184)
(§1) The reaction was incubated for 90 min at 25 C, and then stopped by the addition of 70 ul of Stop buffer (100 mM HEPES pH 7.5, 0.015% Brij-35, 10 mM EDTA (Sigma, E7889)).
The plate was read on a Caliper LC 3000 in an Off-Chip mobility shift assay format, using the following parameters for a 12-sipper chip: screening pressure −2.3 psi, upstream voltage −500, and downstream voltage −3000.
These conditions cause unphosphorylated substrate and phosphorylated product peptide to resolve as separate peaks allowing direct measurement of percentage of conversion of substrate to product. The percent conversion was plotted against concentration of inhibitor to produce a sigmoidal dose response curve, from which an IC50 was calculated.

[4] = biological target: T3, Aurora B (Homo sapiens, UniProt Q96GD4); assay: Aurora B Kinase Assay; type: biochemical; details: GST-Aurora B (1-344), 10 uM ATP, 90 min at 25 C
T3 construct: GST-Aurora B (1-344 amino acids); GST (N); purchased Carna Biosciences 05-102
T3 sequence (Q96GD4 whole entry, the tested form may be a part): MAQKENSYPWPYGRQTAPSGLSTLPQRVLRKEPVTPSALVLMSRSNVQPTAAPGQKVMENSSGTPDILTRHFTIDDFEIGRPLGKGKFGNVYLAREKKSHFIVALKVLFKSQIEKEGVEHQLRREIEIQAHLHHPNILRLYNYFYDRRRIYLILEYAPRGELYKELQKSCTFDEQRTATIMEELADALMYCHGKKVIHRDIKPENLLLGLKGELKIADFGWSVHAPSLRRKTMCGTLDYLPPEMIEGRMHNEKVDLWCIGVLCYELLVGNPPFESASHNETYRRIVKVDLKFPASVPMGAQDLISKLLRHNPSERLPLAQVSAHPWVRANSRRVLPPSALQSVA
T3 sequence (Q9NQS7 803-918 partner limits assumed): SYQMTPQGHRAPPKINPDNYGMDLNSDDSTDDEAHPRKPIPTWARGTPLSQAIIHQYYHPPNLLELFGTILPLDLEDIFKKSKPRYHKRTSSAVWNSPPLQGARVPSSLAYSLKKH
Procedure: To measure inhibitor activity of Aurora B inhibitors in the Caliper Life Sciences LC3000, a TTP Mosquito liquid handling instrument was used to place 0.25 ul of the appropriate concentration of inhibitor in 100% DMSO (for a dose response curve calculation) into each well of a 384-well plate. To this reaction components was added to a final volume of 25 ul: • 0.1 ng/ul GST-Aurora B (1-344 amino acids), (Carna Biosciences 05-102. N-terminal GST fusion with His tagged INCEP, accession number Q96GD4). • 10 uM ATP (Fluka, 02055) • 1 mM DTT (Sigma, D0632) • 1 mM MgCl2 (Sigma, M1028) • 1 uM substrate peptide (sequence FITC-LRRASLG-(CONH2), synthesized by Tufts Peptide Synthesis service. • 100 mM HEPES pH 7.5 (Calbiochem, 391338) • 0.015% Brij-35 (Sigma, B4184)
as §1
The plate was read on a Caliper LC 3000 in an Off-Chip mobility shift assay format, using the following parameters for a 12-sipper chip: screening pressure −1.8 psi, upstream voltage −2700, downstream voltage −1000. These conditions caused unphosphorylated substrate and phosphorylated product peptide to resolve as separate peaks allowing direct measurement of percentage of conversion of substrate to product. The percent conversion was plotted against concentration of inhibitor to produce a sigmoidal dose response curve, from which an IC50 was calculated using XLFit for Microsoft Excel.

T1 sequence (P23443 1-421 T412E limits assumed): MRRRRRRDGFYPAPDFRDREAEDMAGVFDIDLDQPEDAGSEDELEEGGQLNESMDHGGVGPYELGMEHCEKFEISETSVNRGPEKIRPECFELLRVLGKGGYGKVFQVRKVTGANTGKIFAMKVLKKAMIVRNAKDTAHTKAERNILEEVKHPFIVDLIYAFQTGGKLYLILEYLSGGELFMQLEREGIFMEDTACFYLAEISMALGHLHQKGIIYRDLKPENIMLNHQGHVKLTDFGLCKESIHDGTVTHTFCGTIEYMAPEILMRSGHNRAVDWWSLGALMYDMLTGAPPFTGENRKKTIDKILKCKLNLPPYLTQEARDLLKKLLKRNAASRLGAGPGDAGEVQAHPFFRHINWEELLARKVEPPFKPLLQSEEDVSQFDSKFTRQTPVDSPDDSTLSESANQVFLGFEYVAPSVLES

Row | Compound | IC50 [1] | IC50 [2] | IC50 [3] | IC50 [4] | IC50 ([2]; head printed in uM)
1 | NC(=O)c1cccc2c(N[C@H](CN3CCC3)c3cc(F)c(F)c(F)c3)ncnc12 [Example 37, 4-[(S)-2-Azetidin-1-yl-1-(3,4,5-trifluorophenyl)-ethylamino]-quinazoline-8-carboxylic acid amide] | 2.8 nM | 0.13 µM | 25 nM | 200 nM | 
2 | Cc1cc([C@@H](CN2CCC2)Nc2ncnc3c(C(N)=O)cccc23)ccc1F [Example 42, 4-[(S)-2-Azetidin-1-yl-1-(4-fluoro-3-methyl-phenyl)-ethylamino]-quinazoline-8-carboxylic acid amide] | 1.6 nM | 0.032 µM | 23 nM | 120 nM | 
3 | NC(=O)c1cccc2c(N[C@H](CN3CCC3)c3ccc(F)cc3F)ncnc12 [Example 15, 4-[(S)-2-Azetidin-1-yl-1-(2,4-difluorophenyl)-ethylamino]-quinazoline-8-carboxylic acid amide] | 6 nM | 0.144 µM | 84 nM | 200 nM | 
4 | NC(=O)c1cccc2c(N[C@H](CN3CCC3)c3ccc(F)c(Cl)c3)ncnc12 [Example 7, 4-[(S)-2-Azetidin-1-yl-1-(3-chloro-4-fluorophenyl)-ethylamino]-quinazoline-8-carboxylic acid amide] | 1.3 nM | 0.0013 µM | 12 nM | 58 nM | 
5 | NC(=O)c1cccc2c(N[C@H](CN3CCC3)c3ccc(F)c(F)c3F)ncnc12 [Example 19, 4-[(S)-2-Azetidin-1-yl-1-(2,3,4-trifluorophenyl)-ethylamino]-quinazoline-8-carboxylic acid amide] | 2.1 nM | 0.062 µM | 23 nM | 360 nM | 
6 | NC(=O)c1cccc2c(N[C@H](CN3CCC3)c3ccc4c(c3)OCO4)ncnc12 [Example 20, 4-[(S)-2-Azetidin-1-yl-1-(1-benzo[1,3]dioxol)-ethylamino]-quinazoline-8-carboxylic acid amide] | 1.7 nM | 0.068 µM | 120 nM | 300 nM | 
7 | CC(C)c1ccc([C@@H](CN2CCC2)Nc2ncnc3c(C(N)=O)cccc23)cc1 [Example 34, 4-[(S)-2-Azetidin-1-yl-1-(4-isopropylphenyl)-ethylamino]-quinazoline-8-carboxylic acid amide] | 0.8 nM | 0.063 µM |  |  | 
8 | CC(C)Oc1ccc([C@@H](CN2CCC2)Nc2ncnc3c(C(N)=O)cccc23)cc1 [Example 36, 4-[(S)-2-Azetidin-1-yl-1-(4-isopropoxyphenyl)-ethylamino]-quinazoline-8-carboxylic acid amide] | 400 nM |  |  |  | > 10 µM
9 | NC(=O)c1cccc2c(N[C@H](CN3CCC3)c3ccc(Cl)c(F)c3)ncnc12 [Example 29, 4-[(S)-2-Azetidin-1-yl-1-(4-chloro-3-fluoro-phenyl)-ethylamino]-quinazoline-8-carboxylic acid amide] | 1.6 nM | 0.019 µM | 7.7 nM |  | 
10 | NC(=O)c1cccc2c(N[C@H](CN3CC(O)C3)c3ccc(F)c(F)c3)ncnc12 [Example 33, 4-[(S)-1-(3,4-Difluoro-phenyl)-2-(3-hydroxy-azetidin-1-yl)-ethylamino]-quinazoline-8-carboxylic acid amide] | 4.6 nM |  |  | 210 nM | 
11 | COc1cc([C@@H](CN2CCC2)Nc2ncnc3c(C(N)=O)cccc23)cc(F)c1F [Example 40, 4-[(S)-2-Azetidin-1-yl-1-(3,4-difluoro-5-methoxyphenyl)-ethylamino]-quinazoline-8-carboxylic acid amide] | 130 nM |  |  | > 1 nM | > 10 µM
12 | NC(=O)c1cccc2c(N[C@H](CN3CCC3)c3ccc(OC(F)(F)F)c(Cl)c3)ncnc12 [Example 28, 4-[(S)-2-Azetidin-1-yl-1-(3-chloro-4-trifluoromethoxy-phenyl)-ethylamino]-quinazoline-8-carboxylic acid amide] | 2.4 nM | 0.061 µM |  | 690 nM | 
13 | NC(=O)c1cccc2c(N[C@H](CN3CC(F)(F)C3)c3ccc(Cl)cc3)ncnc12 [Example 32, 4-[(S)-1-(4-Chloro-phenyl)-2-(3,3-difluoro-azetidin-1-yl)-ethylamino]-quinazoline-8-carboxylic acid amide] | 42 nM | > 0.01 µM |  | 340 nM | 
14 | NC(=O)c1cccc2c(N[C@H](CN3CC(F)C3)c3cccc(Cl)c3)ncnc12 [Example 22, 4-[(S)-2-(3-Fluoro-azetidin-1-yl)-1-(3-chlorophenyl)-ethylamino]-quinazoline-8-carboxylic acid amide] | 2.4 nM | 0.324 µM | 72 nM |  | 
15 | NC(=O)c1cccc2c(N[C@H](CN3CCC3)c3ccccc3)ncnc12 [Example 21, 4-[(S)-2-Azetidin-1-yl-1-phenyl-ethylamino]-quinazoline-8-carboxylic acid amide] | 11 nM | 3.1 µM |  |  | 
16 | NC(=O)c1cc(F)cc2c(N[C@H](CN3CCC3)c3ccc(Cl)c(F)c3)ncnc12 [Example 51, 4-[(S)-2-Azetidin-1-yl-1-(4-chloro-3-fluoro-phenyl)-ethylamino]-6-fluoro-quinazoline-8-carboxylic acid amide] | 1 nM | 0.064 µM |  | 54 nM | 
17 | NC(=O)c1ccc([C@@H](CN2CCC2)Nc2ncnc3c(C(N)=O)cccc23)cc1 [Example 35, 4-[(S)-2-Azetidin-1-yl-1-(4-carbamoylphenyl)-ethylamino]-quinazoline-8-carboxylic acid amide] | 8.6 nM | 0.577 µM |  |  | 
